Data on one molecule can be found in US9095505B2, “Pyrethroids for treatment of ocular movement disorders” (RBG Group, LTD., priority 2013, dated 2015).

Entries after “also recorded” stand apart in the source; their conditions may differ.

In this assay the test system is canine subjects. Description: Eye movement recording of nystagmus in canine subjects (amplitude, NAFX). In kind it is in vivo. Here is the method:
Eye movements were recorded using an EyeLink 1000 remote video recording system, with a sampling rate of 500-1000 Hz.
Efficacy was assessed by video-based eye tracking system wherein eye movement recordings of nystagmus and determination of Nystagmus Acuity Function (NAF, NAFX or eNAFX) was calculated from position and velocity data obtained from calibrated eye movement recordings. Techniques used to collect such data include a scleral search coil, non-contact infrared oculography, video pupillography and electroculography.
Nystagmus Acuity Function—NAF is a derived function that predicts the best-corrected visual acuity possible in subjects with nystagmus. NAF is based upon objective measurements of a subject's waveform characteristics during fixation of a small light-emitting diode and combines the foveation time per cycle and the standard deviations of both eye position and velocity during target foveation into a function that is linearly proportional to best-possible visual acuity.
Evaluation of the nystagmus acuity function (NAF, NAFX, eNAFX) is often used to evaluate the quality of the nystagmus cycle and/or quantify the effect of surgical or pharmaceutical intervention on the nystagmus waveform. […]
Amplitude—The amplitude of nystagmus was measured directly from calibrated eye movement recordings in degrees. […]

Regarding `CC1(C)C(/C=C(\Cl)C(F)(F)F)C1C(=O)OC(C#N)c1cccc(Oc2ccccc2)c1` [LC, (R)-cyano(3-phenoxyphenyl)methyl(1S,3S)-rel-3-[(1Z)-2-chloro-3,3,3-trifluoro-1-propenyl]-2,2-dimethylcyclopropanecarboxylate], under “after two doses of 0.6% topical eye drop, compared to Pre Drop recording of FIG. 1”, the “high frequency (9-11) Hz pendular oscillation in eye position recording” value is recorded as “less amplitude as compared to the Pre Drop eye movement recording; also recorded: only present only in extreme gaze”. Further, the effect on nystagmus result (after two doses of 0.6% w/w formulation) is recorded as “significant improvement of nystagmus”.
